Legend:
Cancer cells (KG-1) = assay: Cytotoxicity assay, WST-1, KG-1; assay type: cell-based; details: Homo sapiens; KG-1 cells, 72 hours, WST-1
Description: To evaluate the effect of the compounds of the present disclosure on cancer cells, a cytotoxicity assay was conducted as follows.
Cancer cells (KG-1) were seeded at a concentration of 10,000 cells per well into a 96-well plate. Then, the cells were treated with predetermined concentrations of compounds of the Examples and comparative substances (comparative compounds 1, 2, 3). After 72 hours, the cells were incubated with WST-1 reagent for one hour. Then, absorbance was measured at 450 nm using a spectramax spectrophotometer to assess the degree of cancer cell apoptosis. The IC50 (μM) values were calculated using the measured values with the GraphPad Prism program and the measurements are summarized in Table 1.

[1] = tested on: NCI-H1155 (lung cancer cells); assay: CytoX cell viability assay, NCI-H1155; assay type: cell-based; details: for viability at 0.01 µM / viability at 0.5 µM: Homo sapiens, NCI-H1155; for cytotoxic activity against cancer cells, H1155 cells (in words): (6+6) bicyclic heteroaryl compared to (6+5) bicyclic heteroaryl (Compounds 56-58 and 62-70)
Description: The survival rate of NCI-H1155 (lung cancer cells) was measured using the CytoX cell viability assay kit (LPS solution, #CYT3000). NCI-H1155 cells were inoculated into 12-well plates. Afterwards, the cells were treated with each compound of the present disclosure and a comparative substance (CC-90009) at concentrations of 10 nM and 500 nM for 72 hours. Then, CytoX solution was added to the cells, incubated for one hour, and the absorbance of each well was read at 450 nm using a microplate reader to calculate the % viability, and the measurements are summarized in Table 2

Structure (SMILES)	viability at 0.01 µM ([1]; 10 nM, 72 hours)	viability at 0.5 µM ([1]; 500 nM, 72 hours)	other results
O=C1CCC(N2Cc3cc(CNC(=O)c4nc5cc(Cl)ccc5s4)ccc3C2=O)C(=O)N1 (stereo not drawn) [Compound 44, 5-chloro-N-((2-(2,6-dioxopiperidin-3-yl)-1-oxoisoindolin-5-yl)methyl)benzo[d]thiazole-2-carboxamide]			IC50 (Cancer cells (KG-1)): 0.01 to 1 µM
O=C1CCC(N2Cc3cc(CNC(=O)c4ncc(-c5cccc(Cl)c5)cn4)ccc3C2=O)C(=O)N1 (stereo not drawn) [Compound 20, 5-(3-Chlorophenyl)-N-((2-(2,6-dioxopiperidin-3-yl)-1-oxoisoindolin-5-yl)methyl)pyrimidine-2-carboxamide]			IC50 (Cancer cells (KG-1)): 0.0001 to 0.01 µM
O=C1CCC(N2Cc3cc(CNC(=O)c4cc5cc(C(F)(F)F)ccc5s4)ccc3C2=O)C(=O)N1 (stereo not drawn) [Compound 73, N-((2-(2,6-Dioxopiperidin-3-yl)-1-oxoisoindolin-5-yl)methyl)-5-(trifluoromethyl)benzo[b]thiophene-2-carboxamide]	40.4%	26%	
Cc1c(C(=O)NCc2ccc3c(c2)CN(C2CCC(=O)NC2=O)C3=O)sc2c(Cl)cccc12 (stereo not drawn) [Compound 78, 7-Chloro-N-((2-(2,6-dioxopiperidin-3-yl)-1-oxoisoindolin-5-yl)methyl)-3-methylbenzo[b]thiophene-2-carboxamide]	15.7%	15.6%	
O=C1CCC(N2Cc3cc(CNC(=O)c4cc5ccccc5o4)ccc3C2=O)C(=O)N1 (stereo not drawn) [Compound 56, N-((2-(2,6-Dioxopiperidin-3-yl)-1-oxoisoindolin-5-yl)methyl)benzofuran-2-carboxamide]	29.8%	5.94%	
COc1ccc2c(Cl)c(C(=O)NCc3ccc4c(c3)CN(C3CCC(=O)NC3=O)C4=O)sc2c1 (stereo not drawn) [Compound 68, 3-Chloro-N-((2-(2,6-dioxopiperidin-3-yl)-1-oxoisoindolin-5-yl)methyl)-6-methoxybenzo[b]thiophene-2-carboxamide]	29.9%	26.4%	
Cc1c(C(=O)NCc2ccc3c(c2)CN(C2CCC(=O)NC2=O)C3=O)sc2ccc(Cl)cc12 (stereo not drawn) [Compound 75, 5-Chloro-N-((2-(2,6-dioxopiperidin-3-yl)-1-oxoisoindolin-5-yl)methyl)-3-methylbenzo[b]thiophene-2-carboxamide]	32.1%	24.5%	
Cc1c(C(=O)NCc2ccc3c(c2)CN(C2CCC(=O)NC2=O)C3=O)sc2cccc(Cl)c12 (stereo not drawn) [Compound 77, 4-Chloro-N-((2-(2,6-dioxopiperidin-3-yl)-1-oxoisoindolin-5-yl)methyl)-3-methylbenzo[b]thiophene-2-carboxamide]	24%	24%	
Cc1ccc2cc(C(=O)NCc3ccc4c(c3)CN(C3CCC(=O)NC3=O)C4=O)sc2c1 (stereo not drawn) [Compound 66, N-((2-(2,6-Dioxopiperidin-3-yl)-1-oxoisoindolin-5-yl)methyl)-6-methylbenzo[b]thiophene-2-carboxamide]	32.1%	26.1%	
Cc1ccc2c(Cl)c(C(=O)NCc3ccc4c(c3)CN(C3CCC(=O)NC3=O)C4=O)sc2c1 (stereo not drawn) [Compound 67, 3-Chloro-N-((2-(2,6-dioxopiperidin-3-yl)-1-oxoisoindolin-5-yl)methyl)-6-methylbenzo[b]thiophene-2-carboxamide]	26.1%	24.4%	
COc1cccc2cc(C(=O)NCc3ccc4c(c3)CN(C3CCC(=O)NC3=O)C4=O)oc12 (stereo not drawn) [Compound 82, N-((2-(2,6-Dioxopiperidin-3-yl)-1-oxoisoindolin-5-yl)methyl)-7-methoxybenzofuran-2-carboxamide]	39%	17.6%	
O=C1CCC(N2Cc3cc(CNC(=O)c4cnc5cc(Cl)ccc5c4O)ccc3C2=O)C(=O)N1 (stereo not drawn) [Compound 59, 7-chloro-N-((2-(2,6-dioxopiperidin-3-yl)-1-oxoisoindolin-5-yl)methyl)-4-hydroxyquinoline-3-carboxamide]	102%	40.1%	cytotoxic activity against cancer cells, H1155 cells (in words) [1]: less cytotoxic activity
Cc1c(C(=O)NCc2ccc3c(c2)CN(C2CCC(=O)NC2=O)C3=O)sc2ccccc12 (stereo not drawn) [Compound 76, N-((2-(2,6-Dioxopiperidin-3-yl)-1-oxoisoindolin-5-yl)methyl)-3-methylbenzo[b]thiophene-2-carboxamide]	28%	26.3%	
O=C1CCC(N2Cc3cc(CNC(=O)c4cc5ccccc5oc4=O)ccc3C2=O)C(=O)N1 (stereo not drawn) [Compound 60, N-((2-(2,6-Dioxopiperidin-3-yl)-1-oxoisoindolin-5-yl)methyl)-2-oxo-2H-cromene-3-carboxamide]	82%	22.3%	cytotoxic activity against cancer cells, H1155 cells (in words) [1]: less cytotoxic activity
COc1cccc2sc(C(=O)NCc3ccc4c(c3)CN(C3CCC(=O)NC3=O)C4=O)cc12 (stereo not drawn) [Compound 74, N-((2-(2,6-Dioxopiperidin-3-yl)-1-oxoisoindolin-5-yl)methyl)-4-methoxybenzo[b]thiophene-2-carboxamide]	26.6%	25.4%	
Cc1c(C(=O)NCc2ccc3c(c2)CN(C2CCC(=O)NC2=O)C3=O)sc2cccc(F)c12 (stereo not drawn) [Compound 79, N-((2-(2,6-Dioxopiperidin-3-yl)-1-oxoisoindolin-5-yl)methyl)-4-fluoro-3-methylbenzo[b]thiophene-2-carboxamide]	16.2%	15.2%	
COc1ccc2sc(C(=O)NCc3ccc4c(c3)CN(C3CCC(=O)NC3=O)C4=O)cc2c1 (stereo not drawn) [Compound 65, N-((2-(2,6-Dioxopiperidin-3-yl)-1-oxoisoindolin-5-yl)methyl)-5-methoxybenzo[b]thiophene-2-carboxamide]	31.7%	23.4%	
Cc1c(C(=O)NCc2ccc3c(c2)CN(C2CCC(=O)NC2=O)C3=O)nn(CC(C)C)c1-c1ccc(Cl)cc1 (stereo not drawn) [Compound 62, 5-(4-Chlorophenyl)-N-((2-(2,6-dioxopiperidin-3-yl)-1-oxoisoindolin-5-yl)methyl)-1-isobutyl-4-methyl-1H-pyrazole-3-carboxamide]	18.9%	9.56%	
COc1ccc2[nH]c(C(=O)NCc3ccc4c(c3)CN(C3CCC(=O)NC3=O)C4=O)cc2c1 (stereo not drawn) [Compound 57, N-((2-(2,6-Dioxopiperidin-3-yl)-1-oxoisoindolin-5-yl)methyl)-5-methoxy-1H-indole-2-carboxamide]	83.8%	21.2%	
O=C1CCC(N2Cc3cc(CNC(=O)c4cc5ccccc5s4)ccc3C2=O)C(=O)N1 (stereo not drawn) [Compound 58, N-((2-(2,6-Dioxopiperidin-3-yl)-1-oxoisoindolin-5-yl)methyl)benzo[b]thiophene-2-carboxamide]	4.31%	2.96%	
Cc1c(C(=O)NCc2ccc3c(c2)CN(C2CCC(=O)NC2=O)C3=O)oc2ccc(Br)cc12 (stereo not drawn) [Compound 85, 5-bromo-N-((2-(2,6-dioxopiperidin-3-yl)-1-oxoisoindolin-5-yl)methyl)-3-methylbenzofuran-2-carboxamide]	36.6%	18.6%	
O=C1CCC(N2Cc3cc(CNC(=O)C(F)(F)c4ccc(Cl)cc4)ccc3C2=O)C(=O)N1 (stereo not drawn) [CC-90009, reference compound]			NCI-H1155 (% viability) at 10 nM ([1]; 10 nM, 72 hours): 85.0%; NCI-H1155 (% viability) at 500 nM ([1]; 500 nM, 72 hours): 23.5%
O=C1CCC(N2Cc3cc(CNC(=O)c4sc5cc(C(F)(F)F)ccc5c4Cl)ccc3C2=O)C(=O)N1 (stereo not drawn) [Compound 72, 3-chloro-N-((2-(2,6-dioxopiperidin-3-yl)-1-oxoisoindolin-5-yl)methyl)-6-(trifluoromethyl)benzo[b]thiophene-2-carboxamide]	33%	24.6%	
O=C1CCC(N2Cc3cc(CNC(=O)c4cc5cccc(C(F)(F)F)c5s4)ccc3C2=O)C(=O)N1 (stereo not drawn) [Compound 71, N-((2-(2,6-Dioxopiperidin-3-yl)-1-oxoisoindolin-5-yl)methyl)-7-(trifluoromethyl)benzo[b]thiophene-2-carboxamide]	24.2%	24.4%	
COc1ccc2cc(C(=O)NCc3ccc4c(c3)CN(C3CCC(=O)NC3=O)C4=O)oc2c1 (stereo not drawn) [Compound 83, N-((2-(2,6-Dioxopiperidin-3-yl)-1-oxoisoindolin-5-yl)methyl)-6-methoxybenzofuran-2-carboxamide]	26.1%	15.9%	
O=C1CCC(N2Cc3cc(CNC(=O)c4cc5c(ccc6ccccc65)o4)ccc3C2=O)C(=O)N1 (stereo not drawn) [Compound 86, N-((2-(2,6-Dioxopiperidin-3-yl)-1-oxoisoindolin-5-yl)methyl)naphtho[2,1-b]furan-2-carboxamide]	14.7%	14.7%	
Cc1ccc2c(C)c(C(=O)NCc3ccc4c(c3)CN(C3CCC(=O)NC3=O)C4=O)oc2c1 (stereo not drawn) [Compound 84, N-((2-(2,6-Dioxopiperidin-3-yl)-1-oxoisoindolin-5-yl)methyl)-3,6-dimethylbenzofuran-2-carboxamide]	28.9%	18.2%	
O=C1CCC(N2Cc3cc(CNC(=O)c4cnnc5ccccc45)ccc3C2=O)C(=O)N1 (stereo not drawn) [Compound 61, N-((2-(2,6-Dioxopiperidin-3-yl)-1-oxoisoindolin-5-yl)methyl)cinnoline-4-carboxamide]	96.8%	87.2%	cytotoxic activity against cancer cells, H1155 cells (in words) [1]: less cytotoxic activity
